Measurements: US10052310B2, “Separase inhibitors and uses thereof” (Baylor College of Medicine, priority 2013, dated 2018)

Molecular target: T1, Separase (Homo sapiens, UniProt Q14674)
T1 construct: made in house; host or cells: 293T cells; released from IgG-Agarose by TEV protease
Assay: Fluorogenic Separase activity assay using (Rad21)2-Rh110 as substrate
Format: biochemical
Settings: DMSO final concentration 2% to 38%
Experimental: The substrate used in this Example is (Rad21)2-Rh110, which has two Rad21 peptide molecules (Asp-Arg-Glu-Ile-Nle-Arg) conjugated to one molecule of Rhodamine 110 (Rh110) (CPC Scientific, Sunnyvale Calif.). The assay was set up using 384-well low volume black polystyrene plates (Corning, N.Y.). Fifteen micro liter of activated Separase (˜5 ng) was mixed with 5 μl of test compound. The cleavage buffer (CB) used to dilute reagents was (30 mM Hepes-KOH pH7.7, 50 mM NaCl, 25 mM NaF, 25 mM KCl, 5 mM MgCl2, 1.5 mM ATP, and 1 mM EGTA). The mixture was incubated at room temperature for 1 h, and then 5 μl of 0.2 mM substrate (Rad21)2-Rh110 was added. The positive control contained Separase, substrate and CB without the test compound. The negative control contained substrate and CB only. After the reaction mixture was incubated at 37° C. for 3 h, the relative fluorescence intensity was measured (without stopping the enzymatic activity) at λex=390 nm/λem=450 nm for […] (AMC) released from Rad21-MCA or λex=490 nm/λem=528 nm for Rh110 released from (Rad21)2-Rh110 using a Synergy™ 4 Multi-Mode Microplate Reader (BioTek Instruments Inc., Winooski, Vt.).
Different amounts of Sepin-1 were mixed with activated Separase for 30 min before substrate (Rad21)2-Rh110 was added. After 3 h incubation at 37° C., the fluorescence intensity of Rh110 was determined. IC50 was calculated using either KaleidaGraph program (Synerge software, Reading, Pa.) or four parameter logistic equation (4-parameter dose-response curve fit): Inhibition of Activity (%)=min+(max−min)/{1+(log [M]/IC50)}^Hill Slop, where “min” and “max” represent minimal and maximal activity inhibition, respectively. Hill Slop is the slope of the curve at its midpoint. To identify the mode of Sepin-1 interacting with Separase, different amounts of both Sepin-1 and (Rad21)2-Rh110 were used in the Separase activity assay.

T1 sequence (Q14674 whole entry): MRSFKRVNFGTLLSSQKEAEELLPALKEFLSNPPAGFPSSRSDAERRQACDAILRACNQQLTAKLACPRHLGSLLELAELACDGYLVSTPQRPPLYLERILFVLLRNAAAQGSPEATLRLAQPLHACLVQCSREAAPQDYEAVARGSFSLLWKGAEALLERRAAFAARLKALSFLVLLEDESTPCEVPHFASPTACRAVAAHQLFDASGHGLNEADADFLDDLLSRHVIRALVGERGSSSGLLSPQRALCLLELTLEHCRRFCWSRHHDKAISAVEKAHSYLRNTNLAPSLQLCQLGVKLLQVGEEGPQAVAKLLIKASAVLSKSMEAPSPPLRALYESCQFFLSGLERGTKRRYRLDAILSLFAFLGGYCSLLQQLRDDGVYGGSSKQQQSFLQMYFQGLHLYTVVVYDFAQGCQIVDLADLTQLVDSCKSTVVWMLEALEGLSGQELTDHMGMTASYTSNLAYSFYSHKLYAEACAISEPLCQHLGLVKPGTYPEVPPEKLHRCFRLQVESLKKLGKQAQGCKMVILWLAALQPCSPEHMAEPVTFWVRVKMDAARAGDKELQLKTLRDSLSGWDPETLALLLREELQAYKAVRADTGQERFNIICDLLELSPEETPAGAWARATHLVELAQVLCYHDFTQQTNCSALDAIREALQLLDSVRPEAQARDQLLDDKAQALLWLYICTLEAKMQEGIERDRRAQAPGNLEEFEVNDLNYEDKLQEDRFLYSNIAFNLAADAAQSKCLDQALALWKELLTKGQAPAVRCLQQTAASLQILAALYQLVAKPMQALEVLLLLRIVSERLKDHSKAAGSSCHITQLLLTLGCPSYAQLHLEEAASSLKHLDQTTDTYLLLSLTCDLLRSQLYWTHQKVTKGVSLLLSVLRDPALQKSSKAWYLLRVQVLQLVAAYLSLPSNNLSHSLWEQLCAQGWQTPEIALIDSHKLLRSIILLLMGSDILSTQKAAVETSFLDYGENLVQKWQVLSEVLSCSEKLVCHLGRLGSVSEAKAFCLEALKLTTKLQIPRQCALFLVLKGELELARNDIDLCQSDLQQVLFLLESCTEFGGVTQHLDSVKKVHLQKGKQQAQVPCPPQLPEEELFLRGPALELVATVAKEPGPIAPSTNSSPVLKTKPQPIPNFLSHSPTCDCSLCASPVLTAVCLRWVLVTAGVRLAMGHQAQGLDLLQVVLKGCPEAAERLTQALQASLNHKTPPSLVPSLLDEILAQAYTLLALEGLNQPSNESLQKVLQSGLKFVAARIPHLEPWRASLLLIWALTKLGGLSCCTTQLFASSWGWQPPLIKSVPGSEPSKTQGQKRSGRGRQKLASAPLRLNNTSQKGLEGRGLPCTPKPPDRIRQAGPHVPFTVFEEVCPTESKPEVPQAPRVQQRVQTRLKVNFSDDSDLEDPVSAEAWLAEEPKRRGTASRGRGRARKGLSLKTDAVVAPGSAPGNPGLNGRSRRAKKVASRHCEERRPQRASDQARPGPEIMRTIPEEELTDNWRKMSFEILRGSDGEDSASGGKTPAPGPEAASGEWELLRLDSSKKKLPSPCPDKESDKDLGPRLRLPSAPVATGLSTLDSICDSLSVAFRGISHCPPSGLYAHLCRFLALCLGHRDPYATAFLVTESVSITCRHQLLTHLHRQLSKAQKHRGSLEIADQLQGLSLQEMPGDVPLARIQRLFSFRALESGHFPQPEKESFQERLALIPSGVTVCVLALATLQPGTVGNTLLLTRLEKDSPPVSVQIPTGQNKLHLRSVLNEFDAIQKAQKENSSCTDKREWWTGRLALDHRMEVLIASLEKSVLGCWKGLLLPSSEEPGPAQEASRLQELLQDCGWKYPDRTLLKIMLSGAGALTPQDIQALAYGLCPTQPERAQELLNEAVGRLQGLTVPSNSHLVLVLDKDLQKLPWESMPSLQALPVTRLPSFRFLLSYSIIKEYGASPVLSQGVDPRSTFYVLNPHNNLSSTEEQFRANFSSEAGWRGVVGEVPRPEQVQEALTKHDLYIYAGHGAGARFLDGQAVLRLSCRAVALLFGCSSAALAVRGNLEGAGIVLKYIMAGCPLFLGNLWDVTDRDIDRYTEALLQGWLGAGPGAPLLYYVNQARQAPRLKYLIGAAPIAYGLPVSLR

IC50 of DMSO on Separase assay: ~27%
SMILES: C[S+](C)[O-] [DMSO]
